According to patent US20230348418A1, “ISOINDOLINONE COMPOUNDS” (Monte Rosa Therapeutics, Inc., priority 2021, published 2023):

What was measured:
ABC-1 = assay: viability of NSCLC cell line, high N-Myc (FIG. 2A); assay type: cell-based; settings: ABC-1, high N-Myc; compared to low N-Myc EBC-1 and NCI-H2023
Procedure: (§1) GSPT1 was degraded by compound 10 after six hours of treatment in high N-Myc NCI-H1155 and ABC-1 cells with a DC50 of 3 nM and 22 nM, respectively (x-axys represents […]M concentration of compound 10; y-axis represents the viability in %).

GSPT1 [1] = target: T1, GSPT1 (Homo sapiens, UniProt P15170); assay: GSPT1 degradation in tumors of treated mice (FIG. 3B); assay type: in vivo, mouse; settings: all three dose levels (1 mg/kg, 3 mg/kg, 6 mg/kg), compared to vehicle control
T1 construct: GSPT1 levels in tumors were determined by western blotting 6 hours after the third dose; from tissue; host or cells: NCI-H1155 (ATCC CRL-5818) xenograft tumours in female BALB/c nude mice

GSPT1 [2] = target: T2, GSPT1 (Homo sapiens, UniProt P15170+Q96SW2); assay: GSPT1 levels by western blotting/densitometry in NSCLC cell lines NCI-H1155 and ABC-1; assay type: cell-based
Procedure: The anti-proliferative activity of compound 10 was tested on representative N-Myc high and N-Myc low cell lines (NCI-H1155, ABC-1 and EBC-1, NCI-H2023, respectively) following treatment with compound for 72 hours. Cells were sub-cultures as recommended by the providers (ATCC, DSMZ) and incubated at 37° C., 5% CO2. All cells were authenticated and confirmed by Short Tandem Repeat (STR) profiling. Briefly, cells were seeded to the appropriate density to allow logarithmic growth over the assay period in 96-well opaque-walled clear bottom plates (from Corning, Cat. No. 3903, Lot. No. 16419061; 100 μL total volume) and incubated overnight. […] Cell viability was assessed using the CellTiter-Glo assay kit as recommended by the Manufacturer (Promega, Cat. No. G7558, Lot. No. 0000385738) and measurements performed on the EnSpire multimode plate reader (Perkin Elmer). EC50 values were determined using Prism8 (GraphPad) and the asymmetric (five-parameter) equation and least squares fit. GSPT1 levels were assessed in the NCI-H1155 and ABC-1 cell lines by densitometry analysis following treatment with compound 10 for 6 hours and western blotting analysis. […] For chemiluminescence and colorimetric signals “optimal automatic exposure” settings (3×3 binning) were employed while fluorescence was detected using 1-4 seconds exposure time to achieve best GAPDH signals and avoid overexposure. […]

GSPT1 [3] = target: T2, GSPT1; assay: GSPT1 degradation in ABC-1 cells; assay type: cell-based; parameters: endogenous in cells
Procedure: as §1

GSPT1 [4] = target: T2, GSPT1; assay: relative levels of GSPT1 versus concentration (FIG. 2B); assay type: cell-based; parameters: endogenous in cells; host or cells: MM1S (ATCC CRL-2974); settings: cell line not named
Procedure: as §1

T2 sequence (P15170 whole entry): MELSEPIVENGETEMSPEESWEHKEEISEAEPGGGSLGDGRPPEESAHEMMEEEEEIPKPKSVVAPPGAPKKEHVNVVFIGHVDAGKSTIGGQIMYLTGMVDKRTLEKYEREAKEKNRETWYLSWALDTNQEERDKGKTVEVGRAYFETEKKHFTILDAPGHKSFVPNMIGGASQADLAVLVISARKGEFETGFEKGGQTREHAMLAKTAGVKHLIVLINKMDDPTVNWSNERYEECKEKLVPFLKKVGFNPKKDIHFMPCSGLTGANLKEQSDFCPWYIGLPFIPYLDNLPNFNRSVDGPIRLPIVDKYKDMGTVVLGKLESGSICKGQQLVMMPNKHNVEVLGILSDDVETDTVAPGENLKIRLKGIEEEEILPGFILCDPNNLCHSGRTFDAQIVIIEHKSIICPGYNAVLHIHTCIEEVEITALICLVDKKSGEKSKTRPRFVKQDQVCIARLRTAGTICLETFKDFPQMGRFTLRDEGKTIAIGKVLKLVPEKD
T2 sequence (Q96SW2 whole entry): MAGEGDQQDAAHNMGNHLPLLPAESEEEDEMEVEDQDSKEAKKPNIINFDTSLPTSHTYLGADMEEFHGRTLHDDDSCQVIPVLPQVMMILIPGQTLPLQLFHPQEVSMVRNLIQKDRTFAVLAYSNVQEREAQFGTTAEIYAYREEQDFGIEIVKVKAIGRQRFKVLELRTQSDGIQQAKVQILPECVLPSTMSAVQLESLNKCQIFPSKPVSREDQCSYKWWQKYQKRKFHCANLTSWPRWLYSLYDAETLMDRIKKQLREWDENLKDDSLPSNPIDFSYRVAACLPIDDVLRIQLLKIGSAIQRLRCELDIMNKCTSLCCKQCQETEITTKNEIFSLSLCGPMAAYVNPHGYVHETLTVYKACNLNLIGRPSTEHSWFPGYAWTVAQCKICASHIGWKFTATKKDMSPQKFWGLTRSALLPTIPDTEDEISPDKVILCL
T2 sequence (Q16531 2-1140 partner limits assumed): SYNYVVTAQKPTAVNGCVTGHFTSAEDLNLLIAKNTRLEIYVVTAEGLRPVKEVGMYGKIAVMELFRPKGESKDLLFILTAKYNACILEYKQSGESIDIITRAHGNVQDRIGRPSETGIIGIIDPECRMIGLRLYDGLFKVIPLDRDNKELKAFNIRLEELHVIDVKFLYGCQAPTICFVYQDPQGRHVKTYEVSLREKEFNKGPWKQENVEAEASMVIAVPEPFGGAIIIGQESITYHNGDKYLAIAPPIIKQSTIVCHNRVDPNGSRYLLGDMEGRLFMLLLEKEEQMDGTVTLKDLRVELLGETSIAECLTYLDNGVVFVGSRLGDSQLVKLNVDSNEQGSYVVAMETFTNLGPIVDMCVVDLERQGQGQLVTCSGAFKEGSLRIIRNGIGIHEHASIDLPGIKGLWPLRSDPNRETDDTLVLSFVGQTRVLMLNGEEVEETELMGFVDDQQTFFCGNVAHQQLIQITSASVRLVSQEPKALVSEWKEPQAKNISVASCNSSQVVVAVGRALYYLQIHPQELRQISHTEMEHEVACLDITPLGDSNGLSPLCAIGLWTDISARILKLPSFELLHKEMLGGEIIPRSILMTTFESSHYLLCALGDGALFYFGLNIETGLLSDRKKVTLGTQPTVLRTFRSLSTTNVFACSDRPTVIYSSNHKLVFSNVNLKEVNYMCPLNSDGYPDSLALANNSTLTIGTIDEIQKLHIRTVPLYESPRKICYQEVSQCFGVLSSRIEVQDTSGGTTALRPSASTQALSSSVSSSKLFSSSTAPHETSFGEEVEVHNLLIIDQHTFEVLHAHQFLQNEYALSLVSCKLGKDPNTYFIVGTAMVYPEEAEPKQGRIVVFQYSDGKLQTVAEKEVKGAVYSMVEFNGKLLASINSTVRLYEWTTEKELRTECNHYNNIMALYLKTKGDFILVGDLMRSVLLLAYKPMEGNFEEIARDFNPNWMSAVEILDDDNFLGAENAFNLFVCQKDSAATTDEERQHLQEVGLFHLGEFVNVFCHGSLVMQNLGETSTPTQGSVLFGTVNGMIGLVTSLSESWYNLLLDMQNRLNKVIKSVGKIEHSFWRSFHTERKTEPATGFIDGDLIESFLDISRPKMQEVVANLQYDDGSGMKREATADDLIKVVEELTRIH
T1 sequence (P15170 whole entry): as the sequence (P15170 whole entry) above
T1 sequence (Q96SW2 whole entry, further chain): as the sequence (Q96SW2 whole entry) above
T1 sequence (Q16531 2-1140 partner limits assumed): as the sequence (Q16531 2-1140 partner limits assumed) above

degradation of GSPT1 in tumors (GSPT1 [1]): complete degradation
extent of GSPT1 degradation (GSPT1 [2]; high N-Myc NCI-H1155 and ABC-1 cells, six hours of treatment): Complete degradation of GSPT1
extent of GSPT1 degradation (GSPT1 [3]): complete degradation
GSPT1 degradation versus concentration (GSPT1 [4]): concentration dependent manner
Compound: Cc1ccc(NC(=O)OCc2ccc3c(c2)C(=O)N(C2CCC(=O)NC2=O)C3)cc1Cl (stereo not drawn) [Compound 10]
sensitivity to treatment (viability in %) (ABC-1): highly sensitive
Concentration dependence of GSPT1 degradation (FIG. 2B) (GSPT1 [2]; NCI-H1155 and ABC-1 cells): Degradation took place in a concentration dependent manner
